Results on six compounds are retold here after paper PMC12916490 (Molecular Psychiatry, 2025).

pEC50, pKi: −log10 of the molar value.

Test [1] has as its target T1, h5-HT2B (Homo sapiens, UniProt P41595). Nature of the test: Radioligand binding, h5-HT2B receptor ([3H]LSD).
In test [2] the target is T1, h5-HT2B. Briefly: IP1 formation (Gαq-mediated signaling), h5-HT2B. It counts as cell-based. Conditions: for Emax: read-out: IP1 formation Emax h5-HT2B (95% CI), normalized to maximal effect of 5-HT.
The target in a further test is T2, hDAT (Homo sapiens, UniProt Q01959).
T2 construct: expressed in transfected cells; host or cells: HEK 293 cells (membrane preparation)
Briefly: Radioligand binding, hDAT ([3H]WIN35,428). On the procedure:
Binding affinities at human monoamine receptors and transporters were assessed as previously reported. A detailed description of the methodology is provided in the Supplementary information.
The IC50 values from the radioligand binding assays were determined by nonlinear regression, using three independent concentration-response curves fitted to a one-site model. The Cheng-Prusoff equation was used to calculate Kᵢ values for the competing ligands. EC50 values were determined by applying nonlinear regression to concentration-response curves. Bias factors (β) were calculated based on the relative intrinsic activity approach. More detailed information can be found in the Supplementary information. Mean values for total number of HTR, change in body temperature from pre to post session (Δ°C), and total distance traveled (cm) for each drug dose were compared (p < 0.05) via Welch’s ANOVA with Dunnett’s T3 post test, comparing all doses to respective vehicle controls (0 mg/kg). Welch’s ANOVA with Dunnett’s T3 post test was also used to compare drug concentrations, but the data were compared to DOM in this case. Dose–response relationships for HTR and locomotor activities were plotted using bell-shaped curve fits, while temperature change data were plotted using four-parameter non-linear regression curve fits. The ascending phase of the HTR curve for each drug was used to determine ED50 potency values from four parameter non-linear regression fits. For combined DOM and DOAM administration, the plasma, brain tissue, and brain dialysate drug concentrations were compared using paired t-tests (p < 0.05).
3.1 Assessment of receptor and transporter binding affinities
Membrane preparations were prepared from cells transfected with the respective target. The membrane preparations were then incubated with selective radioligands at concentrations equal to the corresponding Kd and displacement of the ligand by the drugs was measured. The difference between total binding and nonspecific binding (determined in the presence of selective competitors) was defined as specific binding of the radioligand to the target receptor. The following transfected cell lines were used for the binding assays: HEK 293 cells (h5-HT1A, h5-HT2A, h5-HT2B, h5-HT2C, and hD2 receptors, hDAT, hNET, and hSERT), Chinese hamster ovary cells (hα 1A receptor), and Chinese hamster lung cells (hα 2A receptor).
3.1.1 Membrane preparations for receptor and transporter binding
For producing membrane preparations, transfected cells were harvested with trypsin/EDTA, washed with ice-cold phosphate buffered saline, and then pelleted by centrifugation (210 × g for 5 min at 4 °C). The pellets were frozen and stored at -80 °C until use. Frozen pellets were resuspended in 20 m L (receptor binding) or 400 m L (transporter binding) buffer (20 mM HEPES -NaOH, 10 mM EDTA, pH 7.4), and homogenized at 1,100 × g for 20 s (receptor binding) or 560 × g for 15 s (transporter binding); the homogenates were then centrifuged at 48,000 × g for 30 min at 4 °C. For receptor binding assays, the supernatants were discarded and the pellets were resuspended in 20 mL buffer (20 mM HEPES-NaOH, 0.1 mM EDTA, pH 7.4) and homogenized at 1 ,100 × g for 20 s. Centrifugation and discarding of the supernatant were repeated once, and the final pellet was then resuspended in buffer and homogenized.
3.1.2 Serotonin 5-HT1A and 5-HT2A receptor binding
Competitive binding at the h5-HT1A and h5-HT2A receptor was determined using 0.90 nM [ 3H]8-hydroxy-2-(di-n-propylamine)tetralin ([ 3H]8-OH-DPAT; h5-HT1A receptor agonist) and 0.40 nM [3H]ketanserin (h5-HT2 receptor antagonist) as radioligands. […]
binding of the radioligands was defined as difference between total binding (binding buffer alone) and nonspecific binding determined in the presence of 10 μM pindolol (h5-HT1A receptor antagonist) or 10 μM spiperone (h 5-HT2A receptor antagonist).

For a further test, the system named is Human. Also noted: method as in ref 48 (PiHKAL: A Chemical Love Story). As to conditions: ref 48 (PiHKAL: A Chemical Love Story); cited from earlier work.
[3] abbreviates: hDAT Ki, mean (95% CI), HEK 293 membranes.

T2 sequence (Q01959 whole entry): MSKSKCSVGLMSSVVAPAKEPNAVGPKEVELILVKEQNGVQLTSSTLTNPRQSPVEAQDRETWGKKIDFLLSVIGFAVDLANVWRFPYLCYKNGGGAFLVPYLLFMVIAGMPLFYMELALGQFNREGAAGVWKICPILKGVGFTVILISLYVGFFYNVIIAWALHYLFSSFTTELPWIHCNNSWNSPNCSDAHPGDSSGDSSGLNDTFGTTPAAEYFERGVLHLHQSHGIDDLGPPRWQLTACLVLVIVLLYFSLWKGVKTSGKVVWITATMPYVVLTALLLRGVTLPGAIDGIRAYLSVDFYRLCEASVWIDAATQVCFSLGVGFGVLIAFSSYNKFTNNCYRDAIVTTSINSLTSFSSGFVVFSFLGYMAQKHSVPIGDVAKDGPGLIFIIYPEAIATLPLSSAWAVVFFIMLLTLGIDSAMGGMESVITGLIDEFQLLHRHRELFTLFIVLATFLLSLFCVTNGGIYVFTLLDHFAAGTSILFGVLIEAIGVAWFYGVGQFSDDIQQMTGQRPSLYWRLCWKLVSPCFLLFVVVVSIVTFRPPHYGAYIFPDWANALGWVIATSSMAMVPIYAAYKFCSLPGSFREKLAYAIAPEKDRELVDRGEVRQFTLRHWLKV
T1 sequence (P41595 whole entry): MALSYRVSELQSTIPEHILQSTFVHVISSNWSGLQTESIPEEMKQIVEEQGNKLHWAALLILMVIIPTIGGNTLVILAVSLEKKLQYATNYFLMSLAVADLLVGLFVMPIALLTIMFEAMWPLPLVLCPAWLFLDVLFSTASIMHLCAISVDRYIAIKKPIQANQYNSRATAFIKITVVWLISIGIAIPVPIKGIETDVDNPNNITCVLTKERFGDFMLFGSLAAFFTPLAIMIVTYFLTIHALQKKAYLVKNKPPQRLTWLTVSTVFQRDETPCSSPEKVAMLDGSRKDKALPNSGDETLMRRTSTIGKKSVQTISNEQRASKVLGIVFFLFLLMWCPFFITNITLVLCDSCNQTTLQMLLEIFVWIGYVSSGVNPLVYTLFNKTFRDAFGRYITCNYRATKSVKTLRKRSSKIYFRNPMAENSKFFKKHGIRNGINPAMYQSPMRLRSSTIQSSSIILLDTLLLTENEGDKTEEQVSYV

In the case of `CCCCc1cc(OC)c(CC(C)N)cc1OC` (stereo not shown) [DOBU, 4-butyl-2,5-dimethoxyamphetamine], the pKi is 6.79 on h5-HT2B [1] and less than 5.10 on hDAT (setting [3]). This compound also gave a negative-log EC50 (pEC50) on h5-HT2B [2] of 6.24. The Emax at h5-HT2B [2] is 122%. For the same compound, in the test on Human, the Human dose result is on record as “Uncertain”.

Compound `COc1ccc(OC)c(CC(C)N)c1.Cl` (stereo not shown) [2,5-DMA, 2,5-Dimethoxyamphetamine hydrochloride] gave a pKi at h5-HT2B [1] of 5.29. At h5-HT2B [2], the negative logarithm of the EC50 (pEC50) is 4.03 and the maximum response (Emax) is 94%. Besides, the pKi on hDAT (setting [3]) was less than 5.10. For the same compound, the Human dose in the test on Human is 80 to 160 mg.

`CCCCCc1cc(OC)c(CC(C)N)cc1OC` (stereo not shown) [DOAM, 4-amyl-2,5-dimethoxyamphetamine]: the pKi on h5-HT2B [1] was 7.01; on hDAT (Ki DAT, text value (range DAT and SERT 3.6–4.6)) it was 5.44; at hDAT (setting [3]) it was 5.44. The compound also gave a negative-log EC50 (pEC50) on h5-HT2B [2] of 6.24. The maximum response (Emax) on h5-HT2B [2] was determined as 106%. For the same compound, the Human dose in the test on Human was greater than 10 mg.

With `CCc1cc(OC)c(CC(C)N)cc1OC` (stereo not shown) [DOET, 4-ethyl-2,5-dimethoxyamphetamine], the results for the negative-log Ki (pKi) on h5-HT2B [1] and on hDAT (setting [3]) were 6.76 and less than 5.10, respectively. Moreover, at h5-HT2B [2], the pEC50 was 6.63. Further, the Emax at h5-HT2B [2] worked out at 95%. Also, the Human dose with Human was 2.0 to 6.0 mg.

`CCCc1cc(OC)c(CC(C)N)cc1OC.Cl` (stereo not shown) [DOPR, 4-propyl-2,5-dimethoxyamphetamine hydrochloride] had a pKi on h5-HT2B [1] of 6.90. Moreover, on h5-HT2B [2], the negative-log EC50 (pEC50) is 6.64 and the Emax was 96%. This compound showed a negative-log Ki (pKi) on hDAT (setting [3]) of less than 5.10. Besides, in the test on Human, the Human dose was 2.5 to 5.0 mg.

For `COc1cc(CC(C)N)c(OC)cc1C` (stereo not shown) [DOM, 4-methyl-2,5-dimethoxyamphetamine], the pKi is 6.83 at h5-HT2B [1] and less than 5.10 at hDAT (setting [3]). At h5-HT2B [2], this compound gave a pEC50 of 6.16. Moreover, the Emax on h5-HT2B [2] was 91%. Besides, the Human dose in the test on Human was 3.0 to 10.0 mg.

The term pKi denotes the Ki on a negative log10 scale, so that one unit is a factor of ten. By pEC50 is commonly meant −log10 of the EC50, conventionally taken in molar units. One may read the Emax as the greatest response seen or fitted, relative to the assay's reference.
